Experimental data from ChEMBL document CHEMBL6087456 (J Med Chem, 2025).
pEC50, pIC50: −log10 of the molar value. ≈ marks a conversion by molar mass, not a printed value.

How the values were obtained:
[1] = system: Plasmodium falciparum; experiment: Antiparasitic activity against Plasmodium falciparum 3D7 assessed as parasitic reduction ratio at 10 times EC50 pretreated for 120 hrs followed by compound removal and replacement of media without compound measured after 28 days by cell killing assay; format: functional
[2] = Kinetic solubility of compound at pH 6.5 measured after 30 mins by nephelometry; format: physicochemical; conditions: buffer, pH 6.5, read-out: Kinetic_solubility
[3] = Volume of distribution at steady state in overnight-fasted male Sprague-Dawley rat at 3 mg/kg, po or 1 mg/kg, iv measured upto 72 hrs by LCMS analysis; format: ADME, organism-based; conditions: in vivo
[4] = Metabolic stability in human liver microsomes assessed as intrinsic clearance at 0.5 uM incubated for 60 mins in presence of NADPH by tandem quadrupole-Time of Flight MS; format: ADME, Microsome; conditions: 1 h
[5] = biological target: Dihydroorotate dehydrogenase (quinone), mitochondrial (Homo sapiens, UniProt Q02127); experiment: Inhibition of C-terminal His6-tagged recombinant human DHODH (29 to 395 residues) N-terminally truncated soluble domain extracted from Escherichia coli phage resistant BL21-DE3 using CoQD/DHA/DCIP as substrates
Sequence of Dihydroorotate dehydrogenase (quinone), mitochondrial (Homo sapiens, UniProt Q02127) (Q02127 whole entry, the tested form may be a part): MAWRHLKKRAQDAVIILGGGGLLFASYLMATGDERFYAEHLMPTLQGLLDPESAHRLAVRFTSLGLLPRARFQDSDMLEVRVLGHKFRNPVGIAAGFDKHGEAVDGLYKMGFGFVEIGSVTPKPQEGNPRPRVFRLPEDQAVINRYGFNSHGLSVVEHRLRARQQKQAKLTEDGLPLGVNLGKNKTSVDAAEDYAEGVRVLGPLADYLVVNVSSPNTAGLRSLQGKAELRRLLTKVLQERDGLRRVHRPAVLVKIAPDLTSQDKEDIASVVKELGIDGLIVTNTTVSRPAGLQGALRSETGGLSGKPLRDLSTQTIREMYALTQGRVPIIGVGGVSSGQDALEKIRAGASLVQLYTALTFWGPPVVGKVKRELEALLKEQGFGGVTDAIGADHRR

[6] = system: Plasmodium falciparum; experiment: Antiparasitic activity against asexual blood stage Plasmodium falciparum 3D7 incubated for 72 hrs by SYBR Green assay; format: functional, organism-based; conditions: 3D7, 72 h
[7] = biological target: T1, Dihydroorotate dehydrogenase (quinone), mitochondrial (Plasmodium falciparum (isolate 3D7), UniProt Q08210); experiment: Inhibition of N-terminal His6-tagged recombinant Plasmodium falciparum DHODH (158 to 569 residues) N-terminally truncated soluble domain extracted from Escherichia coli phage resistant BL21-DE3 using CoQD/DHA/DCIP as substrates
T1 sequence (Q08210 whole entry): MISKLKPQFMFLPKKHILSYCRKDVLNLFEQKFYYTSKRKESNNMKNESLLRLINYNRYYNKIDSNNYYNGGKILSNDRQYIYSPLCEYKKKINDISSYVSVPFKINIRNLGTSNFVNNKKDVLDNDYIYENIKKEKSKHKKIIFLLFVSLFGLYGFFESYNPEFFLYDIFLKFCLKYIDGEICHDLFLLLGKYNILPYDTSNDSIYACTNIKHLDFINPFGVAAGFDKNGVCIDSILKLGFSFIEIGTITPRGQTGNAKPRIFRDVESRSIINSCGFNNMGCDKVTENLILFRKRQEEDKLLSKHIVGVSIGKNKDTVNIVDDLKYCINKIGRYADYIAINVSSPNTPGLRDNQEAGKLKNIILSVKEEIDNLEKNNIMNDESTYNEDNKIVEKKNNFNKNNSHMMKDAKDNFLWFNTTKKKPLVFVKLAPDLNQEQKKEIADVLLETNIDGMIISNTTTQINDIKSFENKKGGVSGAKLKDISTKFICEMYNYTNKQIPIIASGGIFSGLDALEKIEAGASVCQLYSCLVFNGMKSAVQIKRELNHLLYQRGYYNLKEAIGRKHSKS

[8] = Half life in human; format: ADME
[9] = biological target: Albumin (Homo sapiens, UniProt P02768); experiment: Protein binding to albumin (unknown origin) in ALBUMAX medium; format: ADME; conditions: read-out: PB (converted)
Sequence of Albumin (P02768 whole entry): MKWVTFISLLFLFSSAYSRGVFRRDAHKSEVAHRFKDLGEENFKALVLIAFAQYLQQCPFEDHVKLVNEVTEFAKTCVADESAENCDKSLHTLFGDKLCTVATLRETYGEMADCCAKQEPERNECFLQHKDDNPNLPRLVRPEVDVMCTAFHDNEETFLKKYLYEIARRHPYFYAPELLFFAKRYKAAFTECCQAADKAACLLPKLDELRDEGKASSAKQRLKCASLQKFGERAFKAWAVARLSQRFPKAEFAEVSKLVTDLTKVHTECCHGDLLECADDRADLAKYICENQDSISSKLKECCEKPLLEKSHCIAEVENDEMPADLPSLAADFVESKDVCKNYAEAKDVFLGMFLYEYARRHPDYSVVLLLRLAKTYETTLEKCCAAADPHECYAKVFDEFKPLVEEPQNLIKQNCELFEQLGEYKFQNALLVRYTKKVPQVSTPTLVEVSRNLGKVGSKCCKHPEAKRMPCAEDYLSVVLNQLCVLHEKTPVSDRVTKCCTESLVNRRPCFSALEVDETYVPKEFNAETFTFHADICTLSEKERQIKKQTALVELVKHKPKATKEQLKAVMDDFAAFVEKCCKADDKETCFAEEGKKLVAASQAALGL

[10] = Oral bioavailability in overnight-fasted male Sprague-Dawley rat at 3 mg/kg measured upto 72 hrs by LCMS analysis; format: ADME, organism-based; conditions: in vivo
[11] = Cytotoxicity against human Jurkat cells by Cell Titer Glo assay; format: toxicity, cell-based
[12] = system: Plasmodium falciparum; experiment: Antiparasitic activity against ring-stage Plasmodium falciparum D10 transformed with yeast DHODH incubated for 72 hrs by SYBR Green assay; format: functional, organism-based; conditions: D10, 72 h
[13] = Cytotoxicity against human HepG2 cells by Cell Titer Glo assay; format: toxicity, cell-based
[14] = Drug excretion in Sprague-Dawley rat urine at 1 mg/kg, iv; format: ADME, organism-based; conditions: read-out: Drug excretion
[15] = Oral absorption in overnight-fasted male Sprague-Dawley rat at 3 mg/kg measured upto 72 hrs by LCMS analysis; format: ADME, organism-based; conditions: in vivo
[16] = Plasma protein binding in rat measured for 6 hrs by rapid equilibrium dialysis; format: ADME, cell-free
[17] = Plasma protein binding in human measured for 6 hrs by rapid equilibrium dialysis; format: ADME, cell-free
[18] = Selectivity index, ratio of IC50 for N-terminal His6-tagged recombinant Plasmodium falciparum DHODH (158 to 569 residues) N-terminally truncated soluble domain extracted from Escherichia coli phage resistant BL21-DE3 to IC50 for C-terminal His6-tagged recombinant Plasmodium vivax DHODH (158 to …
[19] = biological target: Cytochrome P450 2D6 (Homo sapiens, UniProt P10635); experiment: Inhibition of CYP2D6 in human liver microsomes; format: ADME, Microsome
Sequence of Cytochrome P450 2D6 (P10635 whole entry): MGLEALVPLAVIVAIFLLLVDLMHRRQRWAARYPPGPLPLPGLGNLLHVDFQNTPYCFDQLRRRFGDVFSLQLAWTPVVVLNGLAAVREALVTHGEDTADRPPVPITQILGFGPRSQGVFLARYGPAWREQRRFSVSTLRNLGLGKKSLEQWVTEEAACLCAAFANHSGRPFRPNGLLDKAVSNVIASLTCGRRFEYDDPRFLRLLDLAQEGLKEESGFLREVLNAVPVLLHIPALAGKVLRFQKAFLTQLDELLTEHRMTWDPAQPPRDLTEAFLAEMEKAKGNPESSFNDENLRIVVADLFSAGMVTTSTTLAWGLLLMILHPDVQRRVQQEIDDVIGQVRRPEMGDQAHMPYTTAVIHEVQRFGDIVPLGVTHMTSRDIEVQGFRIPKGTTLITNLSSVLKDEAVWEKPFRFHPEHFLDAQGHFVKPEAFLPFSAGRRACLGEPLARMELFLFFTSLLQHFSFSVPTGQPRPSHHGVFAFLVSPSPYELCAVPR

[20] = Permeability across apical to basal side in human Caco-2 cells; format: ADME, cell-based
[21] = biological target: T2, Cytochrome P450 2B6 (Homo sapiens, UniProt P20813); experiment: Inhibition of CYP2B6 in human liver microsomes; format: ADME, Microsome
T2 sequence (P20813 whole entry): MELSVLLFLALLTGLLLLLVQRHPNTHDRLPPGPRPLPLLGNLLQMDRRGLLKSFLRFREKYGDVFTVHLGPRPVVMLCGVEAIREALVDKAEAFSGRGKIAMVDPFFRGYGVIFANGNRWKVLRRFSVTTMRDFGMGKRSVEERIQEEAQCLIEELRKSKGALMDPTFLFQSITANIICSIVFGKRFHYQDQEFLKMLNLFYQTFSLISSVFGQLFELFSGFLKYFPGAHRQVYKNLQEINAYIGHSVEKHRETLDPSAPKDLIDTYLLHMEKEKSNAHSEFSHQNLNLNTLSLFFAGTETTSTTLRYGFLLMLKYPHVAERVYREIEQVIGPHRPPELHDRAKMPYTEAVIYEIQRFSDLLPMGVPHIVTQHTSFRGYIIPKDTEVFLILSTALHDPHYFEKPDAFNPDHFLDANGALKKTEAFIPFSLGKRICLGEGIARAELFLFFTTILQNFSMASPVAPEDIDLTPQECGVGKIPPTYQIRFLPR

[22] = biological target: Cytochrome P450 3A4 (Homo sapiens, UniProt P08684); experiment: Inhibition of CYP3A4 in human liver microsomes; format: ADME, Microsome
Sequence of Cytochrome P450 3A4 (P08684 whole entry): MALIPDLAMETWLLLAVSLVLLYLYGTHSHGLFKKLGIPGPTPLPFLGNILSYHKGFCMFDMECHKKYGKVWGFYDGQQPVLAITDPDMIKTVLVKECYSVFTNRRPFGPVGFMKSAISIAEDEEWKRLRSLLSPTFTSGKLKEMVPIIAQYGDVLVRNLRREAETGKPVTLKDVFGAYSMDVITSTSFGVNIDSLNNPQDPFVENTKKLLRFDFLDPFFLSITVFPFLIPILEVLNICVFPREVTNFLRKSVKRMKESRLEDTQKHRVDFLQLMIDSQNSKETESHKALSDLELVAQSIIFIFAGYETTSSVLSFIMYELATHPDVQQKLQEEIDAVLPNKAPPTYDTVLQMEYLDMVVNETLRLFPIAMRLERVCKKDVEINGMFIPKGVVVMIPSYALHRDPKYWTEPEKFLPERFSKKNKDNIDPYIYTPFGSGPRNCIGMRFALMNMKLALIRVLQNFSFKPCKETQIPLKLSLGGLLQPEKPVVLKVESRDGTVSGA

[23] = Half life in overnight-fasted male Sprague-Dawley rat at 3 mg/kg, po or 1 mg/kg, iv measured upto 72 hrs by LCMS analysis; format: ADME, organism-based; conditions: in vivo
[24] = biological target: T3, Cytochrome P450 1A2 (Homo sapiens, UniProt P05177); experiment: Inhibition of CYP1A2 in human liver microsomes; format: ADME, Microsome
T3 sequence (P05177 whole entry): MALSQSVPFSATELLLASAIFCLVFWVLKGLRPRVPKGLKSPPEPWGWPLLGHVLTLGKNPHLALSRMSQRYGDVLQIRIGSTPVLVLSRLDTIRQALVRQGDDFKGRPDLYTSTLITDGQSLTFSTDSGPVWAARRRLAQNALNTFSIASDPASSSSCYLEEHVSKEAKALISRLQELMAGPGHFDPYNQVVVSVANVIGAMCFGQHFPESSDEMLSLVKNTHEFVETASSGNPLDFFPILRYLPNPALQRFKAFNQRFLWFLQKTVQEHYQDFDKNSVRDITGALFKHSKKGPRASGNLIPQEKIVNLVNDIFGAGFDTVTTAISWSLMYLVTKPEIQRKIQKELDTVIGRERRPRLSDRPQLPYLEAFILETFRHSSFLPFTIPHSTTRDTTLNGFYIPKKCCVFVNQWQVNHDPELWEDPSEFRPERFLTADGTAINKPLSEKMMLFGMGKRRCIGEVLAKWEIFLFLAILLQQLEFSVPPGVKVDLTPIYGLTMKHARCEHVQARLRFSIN

[25] = Protein binding in human hepatocytes; format: ADME, cell-based, Hepatocyte; conditions: read-out: PB (converted)

Structure (SMILES)	solubility kinetic at 0.5 h [2]	intrinsic clearance (CLint) [4]	pIC50 [5]	pEC50 [6]	pIC50 [7]	fraction unbound [9]	F [10]	CC50 [11]	CC50 [13]	dose excreted [14]	Fa at 72 h [15]	PPB [16]	PPB [17]	other results
CCc1nc(N)nc(N)c1-c1ccc(Cl)cc1 [PYRIMETHAMINE]	–	–	–	–	–	–	–	–	–	–	–	–	–	log(activity) [1]: 3.5
CCn1cc(C)c2c([C@H](O)c3ccc(C(F)(F)F)nc3)n(C)nc2c1=O	160 µM (≈ 58.6 µg/mL)	< 3 µL/min/mg	< 4.00	7.66	7.13	–	–	–	–	–	–	–	–	Vdss [3]: 2.76 L/kg
Cc1c(C2(c3ccc(C(F)(F)F)nc3)CC2)c[nH]c1C(=O)N[C@H](C)c1nc[nH]n1	–	–	–	–	–	–	–	–	–	–	–	–	–	half-life [8]: > 100 h
CC[C@@](O)(c1cnc(C(F)(F)F)c(Cl)c1)c1c2cnn(C3CC3)c(=O)c2nn1C	25 µM (≈ 10.7 µg/mL)	< 3 µL/min/mg	< 4.52	8.52	–	0.709	80%	> 20 µM	> 20 µM	< 1%	81%	84.9%	78.2%	pEC50 [12]: 5.42
CCOC(=O)c1nn(C)c(Cc2ccc(C(F)(F)F)nc2)c1C	–	–	< 4.00	6.72	6.44	–	–	–	–	–	–	–	–	Ratio IC50 [18]: 4
Cn1nc2c(=O)n(C3CC3)ncc2c1[C@](O)(c1cnc(C(F)(F)F)c(Cl)c1)C(F)(F)F	20 µM (≈ 9.36 µg/mL)	< 3 µL/min/mg	< 4.52	8.52	–	0.319	> 100%	> 20 µM	> 20 µM	< 1%	94%	97.3%	99.1%	pIC50 [19]: < 4.70; permeability [20]: Permeable; pIC50 [21]: < 4.70; pIC50 [22]: < 4.70; t1/2 [23]: 23 h; pIC50 [24]: < 4.70; fraction unbound [25]: 0.342
